Measured values taken from ChEMBL document CHEMBL4411291, “Synthesis and anti-tumor activity of imidazopyrazines as TAK1 inhibitors” (Eur J Med Chem, 2019).
Active and inactive are the calls of the source. The calls are words filed in the database; no cut-off is given here.

Tests used:
[1] = target: T1, Mitogen-activated protein kinase kinase kinase 7 (Homo sapiens) (UniProt O43318); assay: Inhibition of TAK1 (unknown origin) at 1 uM by LanthaScreen Eu kinase binding assay relative to control
T1 sequence (whole entry): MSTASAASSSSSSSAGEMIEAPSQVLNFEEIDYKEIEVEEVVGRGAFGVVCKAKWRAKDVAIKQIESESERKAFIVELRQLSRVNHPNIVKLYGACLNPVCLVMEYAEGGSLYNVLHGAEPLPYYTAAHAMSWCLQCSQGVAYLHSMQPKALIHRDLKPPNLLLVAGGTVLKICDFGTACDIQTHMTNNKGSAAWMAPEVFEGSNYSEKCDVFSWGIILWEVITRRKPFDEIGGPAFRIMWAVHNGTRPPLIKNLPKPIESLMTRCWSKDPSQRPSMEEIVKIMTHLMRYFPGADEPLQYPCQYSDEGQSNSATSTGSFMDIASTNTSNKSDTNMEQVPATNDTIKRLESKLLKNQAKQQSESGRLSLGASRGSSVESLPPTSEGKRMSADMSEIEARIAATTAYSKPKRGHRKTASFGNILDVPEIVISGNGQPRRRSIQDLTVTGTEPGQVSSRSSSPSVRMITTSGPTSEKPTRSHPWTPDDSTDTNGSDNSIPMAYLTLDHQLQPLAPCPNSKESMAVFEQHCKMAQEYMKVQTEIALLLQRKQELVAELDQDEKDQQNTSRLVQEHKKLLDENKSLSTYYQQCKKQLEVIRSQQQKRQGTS

[2] = target: T1, Mitogen-activated protein kinase kinase kinase 7 (Homo sapiens); assay: Inhibition of TAK1 (unknown origin) at 0.1 uM by LanthaScreen Eu kinase binding assay relative to control
SK-CO-1 = assay: Growth inhibition of human SKCO1 cells after 96 hrs by SRB assay; assay type: functional, cell-based; details: SK-CO-1, 96 h
LoVo = assay: Growth inhibition of human LoVo cells after 96 hrs by SRB assay; assay type: functional, cell-based
[3] = Toxicity in CAnN.Cg-Foxnlnu/Crljbgi nude mouse xenografted with human SW620 cells assessed as weight loss at 30 mg/kg, po dosed daily for 14 consecutive days; assay type: organism-based; details: in vivo
SW-620 [4] = assay: Antitumor activity against human SW620 cells xenografted in CAnN.Cg-Foxnlnu/Crljbgi nude mouse assessed as tumor growth inhibition at 30 mg/kg, po dosed daily for 14 consecutive days; assay type: functional, organism-based
SW-620 [5] = assay: Growth inhibition of human SW620 cells after 96 hrs by SRB assay; assay type: functional, cell-based; details: SW-620, 96 h

| Compound | inhibition [1] | inhibition [2] | IC50 (SK-CO-1) | IC50 (LoVo) | IC50 (SW-620 [5]) | Activity [3] | TGI (SW-620 [4]) |
| --- | --- | --- | --- | --- | --- | --- | --- |
| Cc1cc(NC(=O)Nc2cc(C(C)(C)C)nn2-c2ccccc2)ccc1Oc1cn2ccnc2c(NC2CC2)n1 | 30% | 0% | – | – | – | – | – |
| Cc1cc(NC(=O)Nc2cc(C(C)(C)C)nn2-c2cccc(Cl)c2)ccc1-c1cnc(NC2CC2)c2nccn12 | 84% | 16% | – | – | – | – | – |
| Cc1cc(NC(=O)Nc2cc(C(C)(C)C)nn2-c2ccc(C#N)cc2)ccc1-c1cnc(NC2CC2)c2nccn12 | 84% | 19% | – | – | – | – | – |
| Cc1ccc(-n2nc(C(C)(C)C)cc2NC(=O)Nc2ccc(-c3cnc(NC4CC4)c4nccn34)c(C)c2)cc1 | 91% | 7% | – | – | – | – | – |

Further lines, with some results ahead:

| inhibition [1] | inhibition [2] | IC50 (SK-CO-1) | IC50 (LoVo) | IC50 (SW-620 [5]) | Compound | Activity [3] | TGI (SW-620 [4]) |
| --- | --- | --- | --- | --- | --- | --- | --- |
| 69% | 0% | – | – | – | Cc1cc(NC(=O)Nc2cc(C(C)(C)C)nn2-c2ccc(F)cc2)ccc1-c1cnc(NC2CC2)c2nccn12 | – | – |
| 74% | 18% | – | – | – | Cc1cc(NC(=O)Nc2cc(C(C)(C)C)nn2-c2cccc(Cl)c2)ccc1-c1cnc(NC2CC2)c2ncnn12 | – | – |
| 89% | 43% | – | – | – | Cc1cc(NC(=O)Nc2cc(C(C)(C)C)nn2-c2cccnc2)ccc1-c1cnc(NC2CC2)c2nccn12 | – | – |
| 98% | 96% | 61 nM | 75 nM | 38 nM | CCc1cc(Nc2ncc(F)c(-c3cnc4cccnn34)n2)cc(OCCN2CCC(O)CC2)c1 | Toxic | Active |
| 80% | 24% | – | – | – | Cc1cc(NC(=O)Nc2cc(C(C)(C)C)nn2-c2ccccc2)ccc1-c1cnc(NC2CC2)c2ncnn12 | – | – |
